Laboratory results reported in patent US20230125964A1, “Methods for high throughput cryopreservation of cell clusters” (Regents of the University of Minnesota, priority 2021, published 2023).

Columns and labels:
[1] = cited from earlier work
SC-beta islets = settings: individual components and mixtures at same total concentration (44%), FIG. 3C
Method: The full-strength CPA used was 22 wt % EG+22 wt % DMSO prepared in RPMI medium. To load the CPA, islets were first incubated in 20% CPA (i.e., 4.4 wt % EG+4.4 wt % DMSO) for 10 min at 21° C., followed by 50% CPA for 10 min at 4° C. and in 100% CPA for 10 min at 4° C. The islets suspension was then transferred to the cryomesh placed on a wicking material (i.e., paper towel). The CPA cocktail was wicked away through the nylon mesh and islets remained on the cryomesh. Clumping of islets was avoided. The cryomesh was quickly plunged into liquid nitrogen and stored in a liquid nitrogen tank. […]
Quantitative viability was measured on dissociated islet cells. […] After 15 seconds of incubation, 10 μL of the suspension was pipetted onto the Countess Cell Counting Chamber Slides (Thermo Fischer Scientific; Cat #C10228), and viability was quantified using a Countess II FL cell counter (Invitrogen by Thermo Fisher Scientific; Cat #AMQAF1000).
To optimize the CPA formulation, three overall CPA concentrations (33%, 44%, and 54%) were tested consisting of PG, EG, DMSO, or mixtures thereof. Qualitative and quantitative live/dead staining was used to measure SC-beta islet viability for each CPA after loading and unloading (FIG. 2F) and after VR. Qualitative measurements were determined by confocal imaging of intact islets after staining with acridine orange (AO) and propidium iodide (PI). […]

Compound | Transport: share achieving normoglycemia ([1]; canine islets to mice) | Transport: time to normoglycemia ([1]; literature studies) | islet toxicity after CPA loading and unloading (SC-beta islets)
C[S+](C)[O-] [DMSO, dimethyl sulfoxide] | 62% | in 4 days | –
OCCO [EG, ethylene glycol] | – | – | least islet toxicity of the three individual components
